US20240216369A1, “THE USE OF A SPLICING MODULATOR FOR A TREATMENT SLOWING PROGRESSION OF HUNTINGTON'S DISEASE” (Novartis AG, priority 2019, published 2024)

Assays:
tHTT = test: Mutant and total HTT multiplex HTRF assay in Q48 HTT human embryonic stem cell line: tHTT; assay type: cell-based; settings: Q48 HTT hESC, 48 hours
Description: (§1) The multiplex assay is performed in human embryonic stem cells (hESCs) which have been derived by Genea Biocells from human blastocysts of HD donors. Cells are plated at a density of 10,000 cells/well into 384-well collagen coated plates and left to adhere for 24 hours, compounds 1 to 82 are then added to cells and incubated for 48 hours (37° C., 5% CO2), cells are then lysed and the contents split into a black 384-well plate.
(§2) The black plates have a combination of HTRF labeled monoclonal antibodies added which recognize discrete areas of the HTT protein, the 2B7-Tb “donor” antibody (0.2 ng/well) recognizes a sequence at the N-terminus of the protein, an MW1-Alexa488 “acceptor 1” antibody (30 ng/well) recognizes an area in the polyQ region, whereas a MAB2166-d2 “acceptor 2” antibody (6 ng/well) recognizes a sequence beyond the polyQ region. The 2B7 antibody was obtained from Coriell (CH02024), the MW1 antibody from Millipore (MABN2427), and the MAB2166 antibody from Millipore (1HU-4C8).
(§3) These detection reagents are incubated with the cell lysate at room temperature for 4-6 hours before having their fluorescence quantified at 615 nm (donor) and 535 nm and 665 nm (acceptor 1 and 2 respectively). The donor/acceptor ratio between these signals indicates the relative quantities of mHTT and tHTT proteins. As shown in the Table 1, compounds 1 to 82 as described therein and in Table 2, had the following pIC50 values.

mHTT = test: Mutant and total HTT multiplex HTRF assay in Q48 HTT human embryonic stem cell line: mHTT; assay type: cell-based; settings: Q48 HTT hESC, 48 hours
Description: as §1, §2, §3

SMILES	tHTT pIC50 (tHTT)	Rating (based on mHTT potency) (mHTT)	mHTT pIC50 (mHTT)
CN(c1ccc(-c2c(O)cc(-c3ccn(C)c(=O)c3)cc2F)nn1)C1CC(C)(C)NC(C)(C)C1 [Compound 23, 4-(3-fluoro-5-hydroxy-4-(6-(methyl(2,2,6,6-tetramethylpiperidin-4-yl)amino)pyridazin-3-yl)phenyl)-1-methylpyridin-2(1H)-one]	7.17	**** (a pIC50 value between 7.0 and 7.5 is indicated by four stars (****))	7.1895
CCn1ccc2cc(O)c(-c3ccc(OC4CC(C)(C)NC(C)(C)C4)nn3)cc2c1=O [Compound 24, 2-ethyl-6-hydroxy-7-(6-((2,2,6,6-tetramethylpiperidin-4-yl)oxy)pyridazin-3-yl)isoquinolin-1(2H)-one]	7.168	**** (a pIC50 value between 7.0 and 7.5 is indicated by four stars (****))	7.186
CN(c1ccc(-c2cc3c(O)nccc3cc2O)nn1)C1CC(C)(C)NC(C)(C)C1 [Compound 25, 7-(6-(methyl(2,2,6,6-tetramethylpiperidin-4-yl)amino)pyridazin-3-yl)isoquinoline-1,6-diol]	7.128	**** (a pIC50 value between 7.0 and 7.5 is indicated by four stars (****))	7.161
CN(c1ccc(-c2ccc(-c3ccn(C4CC4)c(=O)c3)cc2O)nn1)C1CC(C)(C)NC(C)(C)C1 [Compound 26, 1-cyclopropyl-4-(3-hydroxy-4-(6-(methyl(2,2,6,6-tetramethylpiperidin-4-yl)amino)pyridazin-3-yl)phenyl)pyridin-2(1H)-one]	7.0435	**** (a pIC50 value between 7.0 and 7.5 is indicated by four stars (****))	7.1215
Oc1cc(-c2cn[nH]c2)cc(F)c1-c1nnc(N2C[C@H]3CNC[C@H]3C2)s1 [Compound 27, 3-fluoro-2-(5-((3aR,6aS)-hexahydropyrrolo[3,4-c]pyrrol-2(1H)-yl)-1,3,4-thiadiazol-2-yl)-5-(1H-pyrazol-4-yl)phenol]	7.085	**** (a pIC50 value between 7.0 and 7.5 is indicated by four stars (****))	7.1125
CN(c1ccc(-c2cc3cnn(C)c3cc2O)nn1)C1CC(C)(C)NC(C)(C)C1 [Compound 28, 1-methyl-5-(6-(methyl(2,2,6,6-tetramethylpiperidin-4-yl)amino)pyridazin-3-yl)-1H-indazol-6-ol]	7.1045	**** (a pIC50 value between 7.0 and 7.5 is indicated by four stars (****))	7.111
Cn1ccc(-c2ccc(-c3ccc(OC4CC(C)(C)NC(C)(C)C4)nn3)c(O)c2)cc1=O [Compound 29, 4-(3-hydroxy-4-(6-((2,2,6,6-tetramethylpiperidin-4-yl)oxy)pyridazin-3-yl)phenyl)-1-methylpyridin-2(1H)-one]	7.074	**** (a pIC50 value between 7.0 and 7.5 is indicated by four stars (****))	7.0855
Cc1cc2cc(O)c(-c3ccc(N(C)C4CC(C)(C)NC(C)(C)C4)nn3)cc2cn1 [Compound 30, 3-methyl-7-(6-(methyl(2,2,6,6-tetramethylpiperidin-4-yl)amino)pyridazin-3-yl)isoquinolin-6-ol]	7.0835	**** (a pIC50 value between 7.0 and 7.5 is indicated by four stars (****))	7.08
CN(c1ccc(-c2cc3ncccc3cc2O)nn1)C1CC(C)(C)NC(C)(C)C1 [Compound 31, 7-(6-(methyl(2,2,6,6-tetramethylpiperidin-4-yl)amino)pyridazin-3-yl)quinolin-6-ol]	7.0015	**** (a pIC50 value between 7.0 and 7.5 is indicated by four stars (****))	7.0275
CN1C[C@@H]2CN(c3ccc(-c4ccc(-c5cn[nH]c5)cc4O)nn3)C[C@@H]2C1 [Compound 32, 2-(6-((3aR,6aS)-5-methylhexahydropyrrolo[3,4-c]pyrrol-2(1H)-yl)pyridazin-3-yl)-5-(1H-pyrazol-4-yl)phenol]	7.0625	**** (a pIC50 value between 7.0 and 7.5 is indicated by four stars (****))	7.0085
CN(c1ccc(-c2cc3c(cc2O)-c2nc(N)sc2C3)nn1)C1CC(C)(C)NC(C)(C)C1 [Compound 33, 2-amino-6-(6-(methyl(2,2,6,6-tetramethylpiperidin-4-yl)amino)pyridazin-3-yl)-8H-indeno[1,2-d]thiazol-5-ol]	7.001	**** (a pIC50 value between 7.0 and 7.5 is indicated by four stars (****))	7.0085
CC1(C)CC(Oc2ccc(-c3ccc(-n4cccn4)cc3O)nn2)CC(C)(C)N1 [Compound 34, 5-(1H-pyrazol-1-yl)-2-(6-(2,2,6,6-tetramethylpiperidin-4-yloxy)pyridazin-3-yl)phenol]	6.9475	**** (a pIC50 value between 7.0 and 7.5 is indicated by four stars (****))	7.004
Cc1cc(-c2ccc(-c3ccc(N(C)C4CC(C)(C)NC(C)(C)C4)nn3)c(O)c2)ccn1 [Compound 35, 2-(6-(methyl(2,2,6,6-tetramethylpiperidin-4-yl)amino)pyridazin-3-yl)-5-(2-methylpyridin-4-yl)phenol]	6.877	**** (a pIC50 value between 7.0 and 7.5 is indicated by four stars (****))	7.003
Oc1cc(-c2cn[nH]c2)cc(F)c1-c1nnc(N2CC3(CCNCC3)C2)s1 [Compound 36, 2-(5-(2,7-diazaspiro[3.5]nonan-2-yl)-1,3,4-thiadiazol-2-yl)-3-fluoro-5-(1H-pyrazol-4-yl)phenol]	6.827	*** (a pIC50 value between 6.5 and 7.0 is indicated by three stars (***))	6.996
CC1(C)CC(Oc2ccc(-c3cc4ccc(O)cc4cc3O)nn2)CC(C)(C)N1 [Compound 37, 3-(6-(2,2,6,6-tetramethylpiperidin-4-yloxy)pyridazin-3-yl)naphthalene-2,7-diol]	7.121	*** (a pIC50 value between 6.5 and 7.0 is indicated by three stars (***))	6.98
Cc1cnc2cc(-c3ccc(N(C)C4CC(C)(C)NC(C)(C)C4)nn3)c(O)cc2n1 [Compound 38, 3-methyl-7-(6-(methyl(2,2,6,6-tetramethylpiperidin-4-yl)amino)pyridazin-3-yl)quinoxalin-6-ol]	7.0015	*** (a pIC50 value between 6.5 and 7.0 is indicated by three stars (***))	6.9735
CN(c1ccc(-c2cc3nccnc3cc2O)nn1)C1CC(C)(C)NC(C)(C)C1 [Compound 39, 7-(6-(methyl(2,2,6,6-tetramethylpiperidin-4-yl)amino)pyridazin-3-yl)quinoxalin-6-ol]	6.9105	*** (a pIC50 value between 6.5 and 7.0 is indicated by three stars (***))	6.946
CN(c1ccc(-c2cc3cn(C)nc3cc2O)nn1)C1CC(C)(C)NC(C)(C)C1 [Compound 40, 2-methyl-5-(6-(methyl(2,2,6,6-tetramethylpiperidin-4-yl)amino)pyridazin-3-yl)-2H-indazol-6-ol]	6.994	*** (a pIC50 value between 6.5 and 7.0 is indicated by three stars (***))	6.927
CN(c1ccc(-c2cc3ccccc3cc2O)nn1)C1CC(C)(C)NC(C)(C)C1 [Compound 41, 3-(6-(methyl(2,2,6,6-tetramethylpiperidin-4-yl)amino)pyridazin-3-yl)naphthalen-2-ol]	6.8125	*** (a pIC50 value between 6.5 and 7.0 is indicated by three stars (***))	6.923
Cc1nc2cc(O)c(-c3ccc(N(C)C4CC(C)(C)NC(C)(C)C4)nn3)cc2nc1C [Compound 42, 2,3-dimethyl-7-(6-(methyl(2,2,6,6-tetramethylpiperidin-4-yl)amino)pyridazin-3-yl)quinoxalin-6-ol]	6.885	*** (a pIC50 value between 6.5 and 7.0 is indicated by three stars (***))	6.92
CNc1ccn(-c2ccc(-c3nnc(N(C)C4CC(C)(C)NC(C)(C)C4)s3)c(O)c2)n1 [Compound 43, 2-(5-(methyl(2,2,6,6-tetramethylpiperidin-4-yl)amino)-1,3,4-thiadiazol-2-yl)-5-(3-(methylamino)-1H-pyrazol-1-yl)phenol]	6.852	*** (a pIC50 value between 6.5 and 7.0 is indicated by three stars (***))	6.917
CCN1CCC(c2cn3c(=O)cc(-c4ccc5nn(C)cc5c4)nc3c(C)n2)CC1 [Compound 44, 7-(1-ethylpiperidin-4-yl)-9-methyl-2-(2-methyl-2H-indazol-5-yl)-4H-pyrazino[1,2-a]pyrimidin-4-one]	6.7695	*** (a pIC50 value between 6.5 and 7.0 is indicated by three stars (***))	6.869
